# From patent US20220168295A1, “RIMEGEPANT FOR CGRP RELATED DISORDERS” (Biohaven Pharmaceutical Ireland DAC, priority 2018, published 2022)
# Experiments:
# [1] = test system: subjects with Acute Migraines; test: Study 301 (BHV3000-301) Phase 3 placebo-controlled trial, rimegepant 75 mg tablet, acute treatment of migraine: efficacy and safety; assay type: in vivo, human
# Method: Clinical Trial—BHV3000-301: Phase 3: Double-Blind, Randomized, Placebo-Controlled, Safety and Efficacy Trial of BHV-3000 (Rimegepant) for the Acute Treatment of Migraine (ClinicalTrials.gov Identifier: NCT03235479). A phase 3 clinical study was conducted with 1490 participants, as follows. The purpose of this study was to compare the efficacy of BHV-3000 (rimegepant) versus placebo in subjects with Acute Migraines • Study Type: Interventional (Clinical Trial) • Actual Enrollment: 1490 participants • Allocation: Randomized • Intervention Model: Parallel Assignment • Intervention Model Description: Double-blind to Sponsor, Investigator and Subject Randomized Controlled Trial • Masking: Triple (Participant, Care Provider, Investigator) • Masking Description: Double-blind to Sponsor, Investigator and Subject • Primary Purpose: Treatment • Official Title: BHV3000-301: Phase 3: Double-Blind, Randomized, Placebo-Controlled, Safety and Efficacy Trial of BHV-3000 (Rimegepant) for the Acute Treatment of Migraine [table] • 1. Pain freedom of rimegepant (75 mg tablet) compared with placebo in the acute treatment of migraine will be measured using the number of evaluable subjects that report no pain at 2 hours post-dose. [Time Frame: Two hours post dose] • Pain will be measured on a 4 point Likert scale (0=none, 1=mild, 2=moderate, 3=severe) • 2. Freedom from the most bothersome symptom (MBS) of rimegepant (75 mg tablet) compared with placebo will be measured using the number of evaluable subjects that report the absence of their MBS at 2 hours post-dose. [Time Frame: Two hours post dose] • The MBS (nausea, phonophobia or photophobia) will measured using a binary scale (0=absent, 1=present). • 1. […] [Time Frame: 2 hours −24 hours post-dose] • Sustained Pain Freedom as measured by a 4 point numeric rating scale (None, Mild, Moderate, Severe) • 2. The difference between rimegepant (75 mg tablet) compared to placebo by tabulating the absence of photophobia at 2 hours post-dose in the subset of subjects that reported the presence of photophobia at headache baseline. [Time Frame: 2 hours post-dose] • Photophobia • 3. To evaluate rimegepant (75 mg tablet) compared to placebo by tabulating the number of subjects that report the absence of phonophobia at 2 hours post-dose in the subset of subjects that reported the presence of phonophobia at headache baseline. [Time Frame: 2 hours post-dose] • Phonophobia • 4. To measure the difference between rimegepant (75 mg tablet) compared to placebo on Pain Relief, at 2 hours post-dose, for those that report a pain level of moderate or severe at baseline and then report a pain level of none or mild. [Time Frame: 2 hours post-dose] • Pain Relief as measured by a 4 point numeric rating scale (None, Mild, Moderate, Severe) • 5. Freedom from Nausea by tabulating the number of subjects that report the absence of nausea at 2 hours post-dose in the subset of subjects that reported the presence of nausea at headache baseline. [Time Frame: 2 hours post-dose] • Freedom from Nausea • 6. The difference between rimegepant (75 mg tablet) compared to placebo on the probability of requiring rescue medication using the number of subjects that take rescue medication within […] administration of study medication (BHV3000 or placebo). [Time Frame: up to 24 hours post-dose] • Requiring Rescue Medication • 7. […] [Time Frame: 2 hours-24 hours post-dose] • Sustained Pain Freedom • 8. […] [Time Frame: 2 hours-24 hours post-dose] • Sustained Pain Relief as measured by a 4 point numeric rating scale (None, Mild, Moderate, Severe) • 9. […] [Time Frame: 2 hours-48 hours post-dose] • Sustained Pain Relief as measured by a 4 point numeric rating scale (None, Mild, Moderate, Severe) • 10. To measure the difference between rimegepant (75 mg tablet) relative to placebo on the proportion of subjects able to function normally, at 2 hours, using the number of subjects that self-report as “normal” on the functional disability scale. […]
# patients with migraine = test: Study 201 (BHV3000-201) open label long-term safety study, rimegepant 75 mg oral tablet, acute treatment of migraine; assay type: in vivo, human; settings: for >= 20.0% decrease in migraines (headache days) per month, subjects n (%) / >= 25.0% decrease in migraines (headache days) per month, subjects n (%) / >= 30.0% decrease in migraines (headache days) per month, subjects n (%) / >= 35.0% decrease in migraines (headache days) per month, subjects n (%) / >= 40.0% decrease in migraines (headache days) per month, subjects n (%) / >= 45.0% decrease in migraines (headache days) per month, subjects n (%) / >= 50.0% decrease in migraines (headache days) per month, subjects n (%): Study 201, Overall, n 1731
# Method: Clinical Trial-BHV3000-201: Open Label Safety Study in Acute Treatment of Migraine (ClinicalTrials.gov Identifier: NCT 03266588) A phase 2/3 clinical study is conducted with about 2000 participants, as follows. The purpose of this study is to evaluate safety and tolerability of BHV3000 (rimegepant). • Study Type: Interventional (Clinical Trial) • Estimated Enrollment: 2000 participants • Intervention Model: Single Group Assignment • Masking: None (Open Label) • Primary Purpose: Treatment • Official Title: A Multicenter, Open Label Long-Term Safety Study of BHV3000 in the Acute Treatment of Migraine • Actual Study Start Date: Aug. 30, 2017 • Estimated Primary Completion Date: July 2019 • Estimated Study Completion Date: July 2019 [table] 1. To assess the safety and tolerability of rimegepant (BHV-3000) by measuring the frequency and severity of adverse events and discontinuations due to adverse events [Time Frame: 52 weeks] Number of subjects with treatment-emergent adverse events as assessed through laboratory tests, ECGs, physical exam findings (safety and tolerability) 1. ALT or […] with total bilirubin >2×ULN [Time Frame: 52 weeks] elevated liver function tests 2. hepatic related adverse events and hepatic related adverse events that lead to discontinuation [Time Frame: 52 weeks] adverse events related to liver
smiles,measurement,setting,value
"N[C@@H]1c2cccnc2[C@H](OC(=O)N2CCC(n3c(=O)[nH]c4ncccc43)CC2)CC[C@H]1c1cccc(F)c1F [Rimegepant, [(5S,6S,9R)-5-amino-6-(2,3-difluorophenyl)-6,7,8,9-tetrahydro-5H-cyclohepta[b]pyridin-9-yl] 4-(2-oxo-3H-imidazo[4,5-b]pyridin-1-yl)piperidine-1-carboxylate]",SAEs related to the study drug,[1],No SAE was determined to be related to the study drug
same,"Transaminase level >5 times ULN, subjects",[1],no subject
same,"Adverse event dizziness, incidence",[1]; 4/546,0.7%
same,"Adverse event nausea, incidence",[1]; 5/546,0.9%
same,"Serum ALT or AST levels greater than ULN, subjects",[1]; 11/546,2.0%
same,Proportion of patients achieving normal function at 2 hours (functional disability) versus placebo,[1]; P<0.0001,greater proportion
same,"Serious AEs (SAEs), subjects","[1]; n=2, both not dosed before onset",0.4%
same,"Transaminase level >3 times ULN, subjects",[1]; one subject,0.2%
same,">= 20.0% decrease in migraines (headache days) per month, subjects n (%)",patients with migraine,683 (39.5%) n (%)
same,">= 25.0% decrease in migraines (headache days) per month, subjects n (%)",patients with migraine,602 (34.8%) n (%)
same,">= 30.0% decrease in migraines (headache days) per month, subjects n (%)",patients with migraine,523 (30.2%) n (%)
same,">= 35.0% decrease in migraines (headache days) per month, subjects n (%)",patients with migraine,442 (25.5%) n (%)
same,">= 40.0% decrease in migraines (headache days) per month, subjects n (%)",patients with migraine,362 (20.9%) n (%)
same,">= 45.0% decrease in migraines (headache days) per month, subjects n (%)",patients with migraine,287 (16.6%) n (%)
same,">= 50.0% decrease in migraines (headache days) per month, subjects n (%)",patients with migraine,226 (13.1%) n (%)
same,">= 20.0% decrease in migraines (headache days) per month, subjects n (%)",patients with migraine; listed as BHV-3000,683 (39.5) n (%)
same,">= 25.0% decrease in migraines (headache days) per month, subjects n (%)",patients with migraine; listed as BHV-3000,602 (34.8) n (%)
same,">= 30.0% decrease in migraines (headache days) per month, subjects n (%)",patients with migraine; listed as BHV-3000,523 (30.2) n (%)
same,">= 35.0% decrease in migraines (headache days) per month, subjects n (%)",patients with migraine; listed as BHV-3000,442 (25.5) n (%)
same,">= 40.0% decrease in migraines (headache days) per month, subjects n (%)",patients with migraine; listed as BHV-3000,362 (20.9) n (%)
same,">= 45.0% decrease in migraines (headache days) per month, subjects n (%)",patients with migraine; listed as BHV-3000,287 (16.6) n (%)
same,">= 50.0% decrease in migraines (headache days) per month, subjects n (%)",patients with migraine; listed as BHV-3000,226 (13.1) n (%)
same,Incidence of serum ALT or AST >3xULN,"patients with migraine; Study 201 interim analysis, 75 mg up to once daily, long-term",1.0%
same,Liver safety signal,"patients with migraine; Study 201 interim analysis, including near-daily dosing subset",no liver safety signal detected
same,Liver cases assessed as probably related to study drug,"patients with migraine; Study 201 interim analysis, independent liver panel",no liver cases
